Test results taken from patent publication US9260429B2, “Pyrido[3,4-B]indoles and methods of use” (Medivation Technologies, Inc., priority 2008, dated 2016).
Read-outs that look alike come from different tables or passages of the source. One block for each compound: values may come before it.

What was measured:
[1] = system: rat central imidazoline I2 receptor; assay: Central imidazoline I2 radioligand binding ([3H]Idazoxan); conditions: inhibition of specific [3H]Idazoxan binding
Protocol: To evaluate in radioligand binding assays the activity of compounds of the invention, rat central imidazoline I2 receptor obtained from Wistar Rat cerebral cortex (Brown, C. M. et al., Br. J. Pharmacol. 99:803, 1990) in a modified Tris-HCl buffer (50 mM Tris-HCl buffer, pH 7.4, 0.5 mM EDTA) was used. Compounds of the invention were incubated with 2 nM [^3H]Idazoxan for 30 minutes at 25° C. Non-specific binding was estimated in the presence of 1 μM Idazoxan. Receptor proteins were filtered and washed, the filters were then counted to determine [^3H]Idazoxan specifically bound. Compounds were screened at 1 μM or lower, using 1% DMSO as vehicle. Compounds of the invention were tested in this biochemical assay and percent inhibition of specific binding was determined.

[2] = target: T1, human recombinant dopamine D2L receptor (Homo sapiens, UniProt P14416); assay: Dopamine D2L radioligand binding ([3H]Spiperone)
T1 construct: expressed in transfected cells; host or cells: CHO cells
T1 sequence (P14416 whole entry): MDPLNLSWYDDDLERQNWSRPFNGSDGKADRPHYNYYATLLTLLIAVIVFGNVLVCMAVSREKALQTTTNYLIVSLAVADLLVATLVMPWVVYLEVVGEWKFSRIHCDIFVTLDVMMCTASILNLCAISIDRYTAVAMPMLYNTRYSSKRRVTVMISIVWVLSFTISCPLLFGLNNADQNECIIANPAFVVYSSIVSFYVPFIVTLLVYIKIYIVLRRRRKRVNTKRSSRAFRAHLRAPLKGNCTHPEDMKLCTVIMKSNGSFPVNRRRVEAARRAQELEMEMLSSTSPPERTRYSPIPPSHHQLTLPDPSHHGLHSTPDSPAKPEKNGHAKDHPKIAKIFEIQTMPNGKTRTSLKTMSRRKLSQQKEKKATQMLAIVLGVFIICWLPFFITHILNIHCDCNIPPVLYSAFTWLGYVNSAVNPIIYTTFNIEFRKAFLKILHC
Method in brief: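 CHO-expressed receptor in 50 mM Tris-HCl pH 7.4 with ascorbic acid, 0.001% BSA, 150 mM NaCl; 0.16 nM [3H]spiperone, 120 min at 25 °C; nonspecific binding with haloperidol.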

[3] = target: T2, human recombinant serotonin (5-Hydroxytryptamine) 5-HT7 receptor (Homo sapiens, UniProt P34969); assay: Serotonin 5-HT7 radioligand binding ([3H]LSD)
T2 construct: expressed in transfected cells; host or cells: CHO cells
T2 sequence (P34969 whole entry): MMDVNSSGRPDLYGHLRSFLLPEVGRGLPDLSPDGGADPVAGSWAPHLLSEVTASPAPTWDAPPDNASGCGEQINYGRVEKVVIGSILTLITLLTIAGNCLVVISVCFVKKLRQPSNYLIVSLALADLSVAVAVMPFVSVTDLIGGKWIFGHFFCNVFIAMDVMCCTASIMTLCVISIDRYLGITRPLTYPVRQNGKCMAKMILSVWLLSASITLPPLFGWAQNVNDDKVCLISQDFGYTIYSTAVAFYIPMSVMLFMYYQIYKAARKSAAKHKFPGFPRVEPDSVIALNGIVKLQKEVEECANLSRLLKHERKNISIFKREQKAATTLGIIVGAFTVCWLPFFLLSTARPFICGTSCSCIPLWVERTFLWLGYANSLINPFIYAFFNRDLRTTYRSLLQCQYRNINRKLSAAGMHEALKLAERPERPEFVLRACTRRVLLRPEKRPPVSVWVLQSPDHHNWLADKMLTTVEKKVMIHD
Method in brief: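 CHO-expressed human 5-HT7 receptor with 5.5 nM [3H]LSD in 50 mM Tris-HCl pH 7.4, 10 mM MgCl2, 0.5 mM EDTA, 2 h at 25 °C; nonspecific binding defined with serotonin. Filtration and counting. Compounds at ≤1 μM, 1% DMSO; % inhibition of specific binding.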

[4] = 2 h, 1 μM ligand conc., read-out: Percent Inhibition of ligand binding Dopamine (1 μM ligand conc.) D2L
[5] = 2 h, read-out: Percent Inhibition of ligand binding Serotonin (1 μM ligand concentration) 5-HT7

Binding data (Percentage Inhibition) Imidazoline I2 Central (1 μM) [1]: 40%
inhibition at 1 µM [2, 4]: 6%
Compound: Cc1ccc2c(c1)c1c(n2CCc2ccc(C)nc2)CN(C)CC1 [Compound 1, 2,3,4,9-tetrahydro-2,6-dimethyl-9-(2-(6-methylpyridin-3-yl)ethyl)-1H-pyrido[3,4-b]indole]

Binding data (Percentage Inhibition) Imidazoline I2 Central (1 μM) [1]: 18%
inhibition at 1 µM [2, 4]: -7%
Compound: Cc1ccc2c(c1)c1c(n2CCC2CCCCC2)CN(C)CC1 [Compound 2, 9-(2-cyclohexylethyl)-2,3,4,9-tetrahydro-2,6-dimethyl-1H-pyrido[3,4-b]indole]

Binding data (Percentage Inhibition) Imidazoline I2 Central (1 μM) [1]: 20%
inhibition at 1 µM [2, 4]: 47%
Compound: CN1CCc2c(n(CCc3ccc(F)cc3)c3ccc(Cl)cc23)C1 [Compound 3, 9-(4-fluorophenethyl)-6-chloro-2,3,4,9-tetrahydro-2-methyl-1H-pyrido[3,4-b]indole]

Binding data (Percentage Inhibition) Imidazoline I2 Central (1 μM) [1]: 33%
inhibition at 1 µM [2, 4]: -8%
Compound: CC1CCN(C(=O)Cn2c3c(c4cc(Cl)ccc42)CCN(C)C3)CC1 [Compound 38, 2-(6-chloro-1,2,3,4-tetrahydro-2-methylpyrido[3,4-b]indol-9-yl)-1-(4-methylpiperidin-1-vyl)ethanone]

Compound: C/C(=C\n1c2c(c3cc(Cl)ccc31)CCN(C)C2C)c1ccc(Cl)cc1 (centres unmarked) [Compound 99, 6-chloro-9-(2-(4-chlorophenyl)prop-1-enyl)-1,2-dimethyl-2,3,4,9-tetrahydro-1H-pyrido[3,4-b]indole]
inhibition at 1 µM [2, 4]: -7%
inhibition at 1 µM [3, 5]: 68%

Compound: CCC1c2c(c3cc(Cl)ccc3n2/C=C(\C)c2ccc(Cl)cc2)CCN1C (centres unmarked) [Compound 100, 6-chloro-9-(2-(4-chlorophenyl)prop-1-enyl)-1-ethyl-2-methyl-2,3,4,9-tetrahydro-1H-pyrido[3,4-b]indole]
inhibition at 1 µM [2, 4]: -11%
inhibition at 1 µM [3, 5]: 42%

Compound: C#CCn1c2c(c3cc(Cl)ccc31)CCN(C)C2 [Compound 125, 6-chloro-2,3,4,9-tetrahydro-2-methyl-9-(prop-2-yn1)-1H-pyrido[3,4-b]indole]
Binding data (Percentage Inhibition) Imidazoline I2 Central (1 μM) [1]: 60%
inhibition at 1 µM [2, 4]: 19%

Compound: CC1c2c(c3cc(Cl)ccc3n2C#Cc2ccc(F)cc2)CCN1C (centres unmarked) [Compound 128]
inhibition at 1 µM [2, 4]: 14%
inhibition at 1 µM [3, 5]: 24%

Compound: CCC1c2c(c3cc(Cl)ccc3n2C#Cc2ccc(F)cc2)CCN1C (centres unmarked) [Compound 129]
inhibition at 1 µM [2, 4]: -8%
inhibition at 1 µM [3, 5]: 15%

Compound: CC1c2c(c3cc(Cl)ccc3n2C#Cc2ccc(Cl)cc2)CCN1C (centres unmarked) [Compound 132, 6-chloro-9-((4-chlorophenyl)ethynyl)-1,2-dimethyl-2,3,4,9-tetrahydro-1H-pyrido[3,4-b]indole]
inhibition at 1 µM [2, 4]: -6%
inhibition at 1 µM [3, 5]: 35%

Compound: CCC1c2c(c3cc(C)ccc3n2C(=O)Cc2ccc(F)cc2)CCN1C (centres unmarked) [Compound 159]
inhibition at 1 µM [2, 4]: -9%
inhibition at 1 µM [3, 5]: 49%

Compound: CCC1c2c(c3cc(C)ccc3n2/C=C(\C)c2ccc(Cl)cc2)CCN1C (centres unmarked) [Compound 160, 9-(2-(4-chlorophenyl)prop-1-enyl)-1-ethyl-2,6-dimethyl-2,3,4,9-tetrahydro-1H-pyrido[3,4-b]indole]
inhibition at 1 µM [2, 4]: -1%
inhibition at 1 µM [3, 5]: 84%

Compound: C/C(=C\n1c2c(c3cc(C)ccc31)CCN(C)C2C)c1ccc(Cl)cc1 (centres unmarked) [Compound 161, 9-(2-(4-chlorophenyl)prop-1-enyl)-1,2,6-trimethyl-2,3,4,9-tetrahydro-1H-pyrido[3,4-b]indole]
inhibition at 1 µM [2, 4]: 0%
inhibition at 1 µM [3, 5]: 93%

Compound: CCC1c2c(c3cc(C)ccc3n2C#Cc2ccc(Cl)cc2)CCN1C (centres unmarked) [Compound 162, 9-((4-chlorophenyl)ethynyl)-1-ethyl-2,6-dimethyl-2,3,4,9-tetrahydro-1H-pyrido[3,4-b]indole]
inhibition at 1 µM [2, 4]: 4%
inhibition at 1 µM [3, 5]: 27%

Compound: Cc1ccc2c(c1)c1c(n2C(=O)Cc2ccc(Cl)cc2)C(c2ccccc2)N(C)CC1 (centres unmarked) [Compound 163]
inhibition at 1 µM [2, 4]: -12%
inhibition at 1 µM [3, 5]: 29%

Compound: C/C(=C\n1c2c(c3cc(C)ccc31)CCN(C)C2c1ccccc1)c1ccc(Cl)cc1 (centres unmarked) [Compound 164, 9-(2-(4-chlorophenyl)prop-1-enyl)-2,6-dimethyl-1-phenyl-2,3,4,9-tetrahydro-1H-pyrido[3,4-b]indole]
inhibition at 1 µM [2, 4]: -2%
inhibition at 1 µM [3, 5]: 8%

Compound: C/C(=C/n1c2c(c3cc(C)ccc31)CCN(C)C2C)c1ccccc1F (centres unmarked) [Compound 165]
inhibition at 1 µM [2, 4]: 6%
inhibition at 1 µM [3, 5]: 91%

Compound: C/C(=C\n1c2c(c3cc(C)ccc31)CCN(C)C2C)c1ccccc1F (centres unmarked) [Compound 166]
inhibition at 1 µM [2, 4]: 21%
inhibition at 1 µM ([2]; compound concentration 1 μM, read-out: Percentage inhibition of ligand binding to D2L receptor): 21%
inhibition at 3 µM ([2]; compound concentration 3 μM, read-out: Percentage inhibition of ligand binding to D2L receptor): 12%
inhibition at 10 µM ([2]; compound concentration 10 μM, read-out: Percentage inhibition of ligand binding to D2L receptor): 50%
inhibition at 1 µM [3, 5]: 92%
inhibition at 1 µM ([3]; compound concentration 1 μM, read-out: Percentage inhibition of ligand binding to 5-HT7 receptor): 92%

Compound: C/C(=C/n1c2c(c3cc(Cl)ccc31)CCN(C)C2C)c1ccccc1F (centres unmarked) [Compound 167]
inhibition at 1 µM [2, 4]: 22%
inhibition at 1 µM [3, 5]: 97%

Compound: C/C(=C\n1c2c(c3cc(Cl)ccc31)CCN(C)C2C)c1ccccc1F (centres unmarked) [Compound 168]
inhibition at 1 µM [2, 4]: 9%
inhibition at 1 µM [3, 5]: 84%
